“Also recorded” adds a separate entry of the source.
What was measured:
phosphotyrosine JAK2 = assay: Western blotting for phosphotyrosine JAK2; assay type: cell-based, human
Description: (§1) Western Blotting. Treated cell samples were lysed in 30 mM Hepes, pH 7.5, 10 mM NaCl, 5 mM MgCl2, 25 mM NaF, 1 mM EGTA, 1% Triton-X-100, 10% glycerol, 2 mM sodium orthovanadate, 10 μg/ml aprotinin, 10 μg/ml soybean trypsin inhibitor, 25 μg/ml leupeptin, 2 mM PMSF, and 6.4 mg/ml p-nitrophenylphosphate. Phospho-STAT3, phospho-AKT, phospho-MEK, and phospho-p42/p44 MAPK antibodies were obtained from Cell Signaling Technologies, Cambridge, Mass. Antibodies to STAT3, JAK2, and phospho-INK were purchased from Santa Cruz Biotechnology, Santa Cruz, Calif. Phospho-JAK2 antibody came from Upstate Biotechnology, Lake Placid, N.Y. Membranes were blocked in either 5% milk in PBS, pH 7.4, containing 0.1% Tween-20 (PBS-T) or 1% BSA in TBS, pH 7.5, containing 0.1% Tween-20 (TBS-T). Phospho-specific antibodies (excepting P-MAPK and P-JNK) were incubated in 1% BSA in TBS-T while all other antibodies were diluted in 5% milk in PBS-T for either 2 hr at room temperature or overnight at 4° C. HRP-conjugated secondary antibodies (Jackson ImmunoResearch) were diluted in 5% milk in either PBS-T or TBS-T at 1:1000 dilution for one hour at room temperature. Western blots were visualized using enhanced chemiluminescence as described previously (Blaskovich, M. A. et al. Nat. Biotechnol., 2000, 18:1065-1070).

phosphotyrosine Src = assay: Western blotting for phosphotyrosine Src; assay type: cell-based, human; conditions: A549 and MDA-MB-468 cells, various concentrations, 4 hr
Description: as §1

MDA-MB-468 tumors = assay: Antitumor activity, MDA-MB-468 xenograft in nude mice; assay type: in vivo; conditions: 1 mg/kg/day i.p.
Source text: Antitumor Activity in the Nude Mouse Tumor Xenograft Model. Nude mice and C57 BL-6 black mice (National Cancer Institute, Bethesda, Md.) were maintained in accordance with the Institutional Animal Care and Use Committee (IACUC) procedures and guidelines. v-Src- and oncogenic H-Ras-transformed NIH 3T3, A549, MDA-MB-468 and Calu-1 cells were harvested, resuspended in PBS and injected s.c. into the right and left flank (10×10^6 cells per flank) of 8 week old female nude mice as reported previously (Sun, J. et al. Cancer Res., 1999, 59:4919-4926). Similarly, murine B16-F10 Melanoma cells were injected s.c. into the right and left flank (10^6 cells per flank) of C57 black mice. When tumors reached about 150 mm^3, animals were randomized (five animals per group; two tumors per animal) and dosed i.p. with 0.2 ml once daily. Control animals received DMSO (20%) vehicle whereas treated animals were injected with JSI-124 (1 mg/kg/day) in 20% DMSO in water. The tumor volumes were determined by measuring the length (l) and the width (w) and calculating the volume (V=1w^2/2) as described previously (Sun, J. et al. Cancer Res., 1999, 59:4919-4926). Statistical significance between control and treated animals were evaluated by using Student's t-test. […] Percent surviving mice was determined by monitoring the death of mice until all mice died. […]

phospho-Erk1/2 = assay: Western blotting for phospho-Erk1/2; assay type: cell-based, human; conditions: A549 and MDA-MB-468 cells, up to 10 μM
Description: as §1

phosphotyrosine STAT3 = assay: Cytoblot screening for phospho-STAT3 inhibition in v-Src-transformed NIH 3T3 cells; assay type: cell-based, murine; conditions: 10 μM, 4 hr
Description: Cytoblot Screening for Phospho-STAT3 Inhibition. NIH 3T3 cells stably transfected with v-Src or NIH 3T3 vector control cells (Turkson, J. et al. Mol. Cell Biol., 1999, 19:7519-7528) were plated into sterile, opaque, 96-well tissue culture plates at 25,000 cells/well. After overnight growth at 37° C., the cells were treated for 4 hr in the presence of either vehicle control or 10 μM of NCI Diversity Set compounds (http://dtp.nci.nih.gov/). After treatment, cells were washed in 100 μl cold TBS (10 mM Tris, pH 7.4, 150 mM NaCl), then fixed for one hour at 4° C. with 190 μl per well of cold 3.7% formaldehyde in TBS as described previously (Stockwell, B. R. et al. Chem. Biol., 1999, 6:71-83). Membranes were permeabilized during a five-minute incubation in ice-cold methanol at 4° C. Cells were washed with 180 μl per well 3% milk in TBS then rocked overnight at 4° C. with 50 μl per well of 3% milk in TBS containing 1:1000 dilution of anti-phospho-STAT3 (P-Tyr 705; Cell Signaling Technology, Beverly, Mass.) and 1:2000 dilution of HRP-conjugated goat anti-rabbit IgG (Jackson ImmunoResearch, West Grove, Pa.). Antibodies were aspirated and then plates were washed twice with 180 μl per well TBS. […] Quantification of results was done using GS-700 scanning densitometer (Bio-Rad Laboratories, Hercules, Calif.).

CC(C)(O)/C=C/C(=O)[C@](C)(O)[C@H]1[C@H](O)C[C@@]2(C)[C@@H]3CC=C4[C@@H](C=C(O)C(=O)C4(C)C)[C@]3(C)C(=O)C[C@]12C [JSI-124, cucurbitacin I]
levels of tyrosine phosphorylated JAK2 (phosphotyrosine JAK2; A549 and MDA-MB-468 cells, various concentrations, 4 hr): effective at suppressing the levels of tyrosine phosphorylated JAK2
inhibition of phospho JAK2 levels (in words) (phosphotyrosine JAK2; A-549 cells, 0-10 μM): inhibits both phospho STAT3 and phospho JAK2 levels
IC50 (phosphotyrosine JAK2; A-549 cells, Western blotting, read-out: IC50 for phospho-JAK2): 0.2 µM
levels of tyrosine phosphorylated Src (phosphotyrosine Src): not those of tyrosine phosphorylated Src
inhibition of MDA-MB-468 tumor growth (MDA-MB-468 tumors): 86%
phospho-Erk1/2 levels (phospho-Erk1/2): no inhibitory effect; also recorded: increased the levels of phosphorylation
phosphotyrosine STAT3 levels (cytoblot) (phosphotyrosine STAT3): reduced phosphotyrosine STAT3 to barely detectable levels

Reference: patent US8691799B2, “Materials and methods for treatment of cancer and identification of anti-cancer compounds” (priority 2001, dated 2014)
